Experimental findings from patent US20250346600A1, “TRICYCLIC DERIVATIVES AND RELATED USES” (MOMA Therapeutics, Inc., priority 2023, published 2025) are described below.

Where two headings read alike, the source gives them in different places. Where only a bound is given, the exact number is not on record here.

By AC50 is commonly meant the concentration giving half of the maximal activity seen.

Assay [1] concerns the target T1, Full length WRN protein (aa 2-1432) (Homo sapiens (Human), UniProt Q14191). Description: WRN ATPase ADP-Glo biochemical assay, Assay Format B (100 μM ATP). To be noted: 0.25 nM WRN, 100 nM C6.18 ssDNA, 60 min preincubation, read-out: ATPase ADPGlo AC50 (uM)- Assay Format B. (ADP-Glo turns the ADP formed in a reaction into a luminescent signal.)
The test system of assay [2] is HT29 cells. Description: HT29 (MSS) 7 day viability, CellTiter Glo. Type of assay: cell-based. To be noted: 7 days, read-out: HT29 (MSS) Viability 7 Day CTGAbs AC50. The essentials: (§1)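 HCT116 seeded at 50 cells/well and HT29 at 500 cells/well onto compound plates (10-point 3-fold dilutions from 10 mM DMSO stock), incubated 7 days at 37 °C, 5% CO2.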
In assay [3] the target is T1, Full length WRN protein (aa 2-1432). Description: WRN ATPase ADP-Glo biochemical assay, Assay Format A (10 μM ATP). To be noted: 0.25 nM WRN, 100 nM C6.18 ssDNA, 30 min preincubation, read-out: ATPase ADPGlo AC50 (uM)- Assay Format A. From the text: Full length Werner helicase construct (Uniprot: Q14191) with an N-terminal FLAG-AVI-TEV tag was expressed using the Sf9 cell/baculovirus expression system. The harvested cell pellet was resuspended and lysed in a glass homogenizer. After insoluble material was removed by centrifugation, the helicase protein was first purified with FLAG affinity resin and then further purified through a size-exclusion chromatography column. Peak fractions containing the purified protein were concentrated, split into aliquots and frozen in liquid nitrogen to be thawed before use. Biochemical Assay Description (ATPase activity)-Assay Format A WRN activity was measured using an ATPase assay. Full length WRN protein (aa 2-1432) (production described separately) was used for the biochemical activity assays. The 39-mer ssDNA “C6.18” [NT] was purchased from IDT and used as a substrate. Quantification of ATP hydrolysis was evaluated using the ADP-Glo assay kit (Promega, Madison, WI). An enzyme titration time-course was performed to determine the optimal assay conditions. […] To evaluate the inhibitory effects of the compounds, 11-point 3-fold serial dilutions were prepared in DMSO. 50 nL of each concentration in duplicate was preincubated for 30 minutes in a 384-well microplate (Greiner #784075) with 5 μL of 0.5 nM WRN in assay buffer. The reaction was initiated by adding 5 μL of 200 nM C6.18 DNA with 20 μM ATP and was allowed to proceed for 30 minutes at room temperature. The reaction was stopped with 10 μL ADP-Glo reagent for 1 hour to remove unreacted ATP. Lastly, 20 μL ATP detection reagent was added and incubated for 1 hour to generate the luminescence signal. Control wells included “high controls” with no inhibition (DMSO, no compound) and “low controls” with maximum inhibition (no WRN). Luminescence was recorded on a PHERAstar (BMG Labtech, Ortenberg, Germany). Data was fit using the “Smart Fit” method within the Genedata Screener Software (Basel, Switzerland) to obtain IC50 values using four-parameter fits. Reported IC50s are the geometric means of at least two independent trials.

Assay [4] has as its system HCT116 cells. Kind of assay: HCT116 (MSI) 7 day viability, CellTiter Glo. Type of assay: cell-based. To be noted: 7 days, read-out: HCT116 (MSI) Viability 7 Day Abs AC50. The essentials:
as §1
Background: Cellular ATP, detected with luciferase, serves as a proxy for viable cell number.

T1 sequence (Q14191 2-1432): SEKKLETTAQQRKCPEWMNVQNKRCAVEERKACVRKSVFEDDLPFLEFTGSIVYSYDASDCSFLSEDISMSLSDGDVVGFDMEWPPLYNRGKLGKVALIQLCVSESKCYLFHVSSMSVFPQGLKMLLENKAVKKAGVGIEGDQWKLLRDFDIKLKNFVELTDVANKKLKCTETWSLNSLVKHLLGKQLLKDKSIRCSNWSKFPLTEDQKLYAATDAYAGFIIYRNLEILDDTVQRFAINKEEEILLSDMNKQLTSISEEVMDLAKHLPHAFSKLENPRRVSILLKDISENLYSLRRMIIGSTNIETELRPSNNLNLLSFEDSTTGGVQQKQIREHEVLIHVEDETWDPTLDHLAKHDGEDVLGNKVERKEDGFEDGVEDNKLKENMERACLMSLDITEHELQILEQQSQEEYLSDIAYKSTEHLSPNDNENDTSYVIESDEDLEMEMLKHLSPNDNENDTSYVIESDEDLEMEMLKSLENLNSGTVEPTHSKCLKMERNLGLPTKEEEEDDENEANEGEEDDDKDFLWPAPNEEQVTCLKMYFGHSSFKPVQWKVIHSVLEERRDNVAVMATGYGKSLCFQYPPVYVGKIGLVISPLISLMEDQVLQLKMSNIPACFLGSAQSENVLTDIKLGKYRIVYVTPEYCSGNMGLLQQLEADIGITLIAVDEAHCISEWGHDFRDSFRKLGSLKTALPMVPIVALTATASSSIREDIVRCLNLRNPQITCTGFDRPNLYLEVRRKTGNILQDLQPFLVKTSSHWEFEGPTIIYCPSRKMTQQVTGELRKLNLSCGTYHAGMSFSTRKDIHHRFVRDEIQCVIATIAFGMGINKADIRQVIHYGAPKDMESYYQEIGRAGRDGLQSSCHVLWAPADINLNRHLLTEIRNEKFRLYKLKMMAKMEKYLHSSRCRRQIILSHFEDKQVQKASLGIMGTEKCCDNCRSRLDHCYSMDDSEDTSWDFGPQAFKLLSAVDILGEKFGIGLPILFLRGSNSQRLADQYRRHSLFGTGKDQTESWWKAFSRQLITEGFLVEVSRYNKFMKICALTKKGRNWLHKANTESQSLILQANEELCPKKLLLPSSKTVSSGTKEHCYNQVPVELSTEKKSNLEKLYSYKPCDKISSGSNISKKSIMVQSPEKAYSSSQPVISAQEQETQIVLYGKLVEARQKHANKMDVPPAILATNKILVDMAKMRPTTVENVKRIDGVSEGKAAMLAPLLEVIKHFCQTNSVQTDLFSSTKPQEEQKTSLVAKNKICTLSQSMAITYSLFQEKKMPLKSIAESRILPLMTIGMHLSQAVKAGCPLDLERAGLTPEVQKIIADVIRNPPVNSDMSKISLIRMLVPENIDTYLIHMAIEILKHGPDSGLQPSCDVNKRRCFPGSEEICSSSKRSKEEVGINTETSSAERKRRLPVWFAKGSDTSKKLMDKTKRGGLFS

`C=CC(=O)N1CCc2nn(-c3ccc(C4CC4)cc3O)c3c2C(C1)N(C(=O)c1cnc(C(F)(F)F)cc1N)CC3` (centres unmarked) [Compound 163, 1-(5-(4-amino-6-(trifluoromethyl)nicotinoyl)-2-(4-cyclopropyl-2-hydroxyphenyl)-2,3,4,5,5a,6,8,9-octahydro-7H-1,2,5,7-tetraazabenzo[cd]azulen-7-yl)prop-2-en-1-one]: the AC50 in assay [1] was 0.005 to 0.015 µM; in assay [2] (Homo sapiens, HT-29, 168 h), over 3000 nM; in assay [3] it was under 0.0015 µM; in assay [4] (Homo sapiens, HCT-116, 168 h) it was 1 to 100 nM.
For `C=CC(=O)N1CCc2nn(-c3ccc(C4CC4)cc3O)c3c2C(C1)N(C(=O)c1nnc(C(F)(F)F)cc1N)CC3` (centres unmarked) [Compound 248, 1-(5-(4-amino-6-(trifluoromethyl)pyridazine-3-carbonyl)-2-(4-cyclopropyl-2-hydroxyphenyl)-2,3,4,5,5a,6,8,9-octahydro-7H-1,2,5,7-tetraazabenzo[cd]azulen-7-yl)prop-2-en-1-one], the AC50 in assay [1] was 0.0015 to 0.005 µM; in assay [2] (Homo sapiens, HT-29, 168 h), over 3000 nM; in assay [3] it was under 0.0015 µM; in assay [4] (Homo sapiens, HCT-116, 168 h) it was 1 to 100 nM.
For the compound `C=CC(=O)N1CCc2nn(-c3ccc(C4CC4)cc3)c3c2C(C1)N(C(=O)c1ccn(CC(F)(F)F)c(=O)c1)CC3` (centres unmarked) [Compound 68, 4-(7-acryloyl-2-(4-cyclopropylphenyl)-3,4,5,5a,6,7,8,9-octahydro-2H-1,2,5,7-tetraazabenzo[cd]azulene-5-carbonyl)-1-(2,2,2-trifluoroethyl)pyridin-2(1H)-one], the AC50 was over 0.055 µM in assay [1]; over 3000 nM in assay [2] (Homo sapiens, HT-29, 168 h); over 0.055 µM in assay [3]; over 1000 nM in assay [4] (Homo sapiens, HCT-116, 168 h).
With `C=CC(=O)N1CCc2nn(-c3ccc(C4CCC4)cc3O)c3c2C(C1)N(C(=O)c1cnc(C(F)(F)F)c(O)c1)CC3` (centres unmarked) [Compound 25, 1-(2-(4-cyclobutyl-2-hydroxyphenyl)-5-(5-hydroxy-6-(trifluoromethyl)nicotinoyl)-2,3,4,5,5a,6,8,9-octahydro-7H-1,2,5,7-tetraazabenzo[cd]azulen-7-yl)prop-2-en-1-one], the concentration at half-maximal activity (AC50) was 0.005 to 0.015 µM in assay [1]; over 3000 nM in assay [2] (Homo sapiens, HT-29, 168 h); under 0.0015 µM in assay [3]; 1 to 100 nM in assay [4] (Homo sapiens, HCT-116, 168 h).
Take `C=CC(=O)N1CCc2nn(-c3ccc(C4CCC4)cc3O)c3c2C(C1)N(C(=O)c1ccc(C(F)F)nc1N)CC3` (centres unmarked) [Compound 146, 1-(5-(2-amino-6-(difluoromethyl)nicotinoyl)-2-(4-cyclobutyl-2-hydroxyphenyl)-2,3,4,5,5a,6,8,9-octahydro-7H-1,2,5,7-tetraazabenzo[cd]azulen-7-yl)prop-2-en-1-one]: the AC50 was 0.005 to 0.015 µM in assay [1]; over 3000 nM in assay [2] (Homo sapiens, HT-29, 168 h); under 0.0015 µM in assay [3]; 1 to 100 nM in assay [4] (Homo sapiens, HCT-116, 168 h).
For `C=CC(=O)N1CCc2nn(-c3ccc(C4CCC4)cc3O)c3c2C(C1)N(C(=O)c1ccc(OC(F)(F)F)cc1)CC3` (centres unmarked) [Compound 107, 1-(2-(4-cyclobutyl-2-hydroxyphenyl)-5-(4-(trifluoromethoxy)benzoyl)-2,3,4,5,5a,6,8,9-octahydro-7H-1,2,5,7-tetraazabenzo[cd]azulen-7-yl)prop-2-en-1-one] the same measures were 0.015 to 0.055 µM, over 3000 nM, 0.005 to 0.015 µM and 100 to 250 nM.
In the case of `C=CC(=O)N1CCc2nn(-c3ccc(C45CC(C4)C5)cc3F)c3c2C(C1)N(C(=O)c1ccc(Br)c2[nH]cnc12)CC3` (centres unmarked) [Compound 30, 1-(2-(4-(bicyclo[1.1.1]pentan-1-yl)-2-fluorophenyl)-5-(7-bromo-1H-benzo[d]imidazole-4-carbonyl)-2,3,4,5,5a,6,8,9-octahydro-7H-1,2,5,7-tetraazabenzo[cd]azulen-7-yl)prop-2-en-1-one], the AC50 in assay [1] was 0.005 to 0.015 µM; in assay [2] (Homo sapiens, HT-29, 168 h) it was over 3000 nM; in assay [3], under 0.0015 µM; in assay [4] (Homo sapiens, HCT-116, 168 h) it was 1 to 100 nM.
`C=CC(=O)N1CC(C)c2nn(-c3ccc(C(C)C)cc3O)c3c2C(C1)N(C(=O)c1ccc(Br)c2[nH]cnc12)CC3` (centres unmarked) [Compound 32, 1-(5-(7-bromo-1H-benzo[d]imidazole-4-carbonyl)-2-(2-hydroxy-4-isopropylphenyl)-9-methyl-2,3,4,5,5a,6,8,9-octahydro-7H-1,2,5,7-tetraazabenzo[cd]azulen-7-yl)prop-2-en-1-one]: the AC50 in assay [1] is 0.005 to 0.015 µM; in assay [2] it was over 3000 nM; in assay [3] it was under 0.0015 µM; in assay [4], 1 to 100 nM.
As to `C=CC(=O)N1CCc2nn(-c3ccc(C4CC4)cc3)c3c2C(C1)N(C(=O)c1ccc(OC(C)C)nc1)CC3` (centres unmarked) [Compound 122, 1-(2-(4-cyclopropylphenyl)-5-(6-isopropoxynicotinoyl)-2,3,4,5,5a,6,8,9-octahydro-7H-1,2,5,7-tetraazabenzo[cd]azulen-7-yl)prop-2-en-1-one], the AC50 was over 3000 nM in assay [2] (Homo sapiens, HT-29, 168 h); 0.015 to 0.055 µM in assay [3]; 500 to 1000 nM in assay [4] (Homo sapiens, HCT-116, 168 h).
Turning to `C=CC(=O)N1CCc2nn(-c3ccc(C4CC4)cc3)c3c2C(C1)N(C(=O)c1cc2n(n1)CCN(C)S2(=O)=O)CC3` (centres unmarked) [Compound 116, 1-(2-(4-cyclopropylphenyl)-5-(2-methyl-1,1-dioxido-3,4-dihydro-2H-pyrazolo[1,5-e][1,2,5]thiadiazine-7-carbonyl)-2,3,4,5,5a,6,8,9-octahydro-7H-1,2,5,7-tetraazabenzo[cd]azulen-7-yl)prop-2-en-1-one], the AC50 in assay [2] (Homo sapiens, HT-29, 168 h) was over 3000 nM; in assay [3], over 0.055 µM; in assay [4] (Homo sapiens, HCT-116, 168 h), over 1000 nM.
`C=CC(=O)N1CCc2nn(-c3ccc(C4CC4)cc3)c3c2C(C1)N(C(=O)c1ccc(C(F)F)nc1)CC3` (centres unmarked) [Compound 126, 1-(2-(4-cyclopropylphenyl)-5-(6-(difluoromethyl)nicotinoyl)-2,3,4,5,5a,6,8,9-octahydro-7H-1,2,5,7-tetraazabenzo[cd]azulen-7-yl)prop-2-en-1-one]: the AC50 was over 3000 nM in assay [2] (Homo sapiens, HT-29, 168 h); 0.005 to 0.015 µM in assay [3]; 250 to 500 nM in assay [4] (Homo sapiens, HCT-116, 168 h).
On to `C=CC(=O)N1CCc2nn(-c3ccc(C4CC4)cc3)c3c2C(C1)N(C(=O)c1ccc(-n2cccn2)nc1)CC3` (centres unmarked) [Compound 98, 1-(5-(6-(1H-pyrazol-1-yl)nicotinoyl)-2-(4-cyclopropylphenyl)-2,3,4,5,5a,6,8,9-octahydro-7H-1,2,5,7-tetraazabenzo[cd]azulen-7-yl)prop-2-en-1-one], for which the AC50 was over 3000 nM in assay [2] (Homo sapiens, HT-29, 168 h); 0.015 to 0.055 µM in assay [3]; 250 to 500 nM in assay [4] (Homo sapiens, HCT-116, 168 h).
Regarding `C=CC(=O)N1CCc2nn(-c3ccc(C4CC4)cc3)c3c2C(C1)N(C(=O)c1ccc(OCC(F)(F)F)nc1)CC3` (centres unmarked) [Compound 118, 1-(2-(4-cyclopropylphenyl)-5-(6-(2,2,2-trifluoroethoxy)nicotinoyl)-2,3,4,5,5a,6,8,9-octahydro-7H-1,2,5,7-tetraazabenzo[cd]azulen-7-yl)prop-2-en-1-one], the AC50 in assay [2] (Homo sapiens, HT-29, 168 h) is over 3000 nM; in assay [3] it was over 0.055 µM; in assay [4] (Homo sapiens, HCT-116, 168 h), over 1000 nM.
`C=CC(=O)N1CCc2nn(-c3ccc(C(C)C)cc3)c3c2C(C1)N(C(=O)C1CC1)CC3` (centres unmarked) [Compound 170, 1-(5-(cyclopropanecarbonyl)-2-(4-isopropylphenyl)-2,3,4,5,5a,6,8,9-octahydro-7H-1,2,5,7-tetraazabenzo[cd]azulen-7-yl)prop-2-en-1-one]: the AC50 is over 3000 nM in assay [2] (Homo sapiens, HT-29, 168 h); over 0.055 µM in assay [3]; over 1000 nM in assay [4] (Homo sapiens, HCT-116, 168 h).
